Results from ChEMBL document CHEMBL3885881, “DrugMatrix”.

Species on record: Rattus norvegicus
Experiment: DrugMatrix - Regimen: Daily Repeat
Assay type: toxicity, organism-based, Sprague-Dawley
Set-up: regimen Daily Repeat, gender Male, age 6-8 weeks
Conditions: in vivo, po, route oral GAVAGE, vehicle 100 % WATER; for ABSOLUTE BASOPHIL / ABSOLUTE EOSINOPHIL / ABSOLUTE LYMPHOCYTE / ABSOLUTE MONOCYTE / ABSOLUTE SEGMENTED NEUTROPHIL / BASOPHIL / EOSINOPHIL / ERYTHROCYTE COUNT / HEMATOCRIT / HEMOGLOBIN / LEUKOCYTE COUNT / LYMPHOCYTE / MEAN CORPUSCULAR HEMOGLOBIN / MEAN CORPUSCULAR HEMOGLOBIN CONCENTRATION / MEAN CORPUSCULAR VOLUME / MONOCYTE / NEUTROPHIL / NUCLEATED RED BLOOD CELLS / PLATELET COUNT: tissue Blood; for ALANINE AMINOTRANSFERASE / ALBUMIN / ALKALINE PHOSPHATASE / ASPARTATE AMINOTRANSFERASE / BLOOD UREA NITROGEN / CARBON DIOXIDE / CHLORIDE / CHOLESTEROL / CREATINE PHOSPHOKINASE / CREATININE / GLUCOSE / LACTATE DEHYDROGENASE / LIPASE / PHOSPHORUS / POTASSIUM / SODIUM / TOTAL BILIRUBIN / TOTAL PROTEIN / URIC ACID: tissue Plasma
[1] = 20 mg/kg, 120 h, dose level Low, time 5 day
[2] = 160 mg/kg, 72 h, dose level High, time 3 day
[3] = 160 mg/kg, 120 h, dose level High, time 5 day

SMILES: CN(C)CCC=C1c2ccccc2CCc2ccccc21 [AMITRIPTYLINE]
- ABSOLUTE BASOPHIL [1]: 0 CELLS/uL
- ABSOLUTE EOSINOPHIL [1]: 0 CELLS/uL
- ABSOLUTE LYMPHOCYTE [1]: 11980.67 CELLS/uL
- ABSOLUTE MONOCYTE [1]: 40.67 CELLS/uL
- ABSOLUTE SEGMENTED NEUTROPHIL [1]: 1045.33 CELLS/uL
- BASOPHIL [1]: 0%
- EOSINOPHIL [1]: 0%
- ERYTHROCYTE COUNT [1]: 5.76 x10E6/uL
- HEMATOCRIT [1]: 35.93%
- HEMOGLOBIN [1]: 14.33 G/DL
- LEUKOCYTE COUNT [1]: 13.07 x10E3/uL
- LYMPHOCYTE [1]: 91.33%
- MEAN CORPUSCULAR HEMOGLOBIN [1]: 24.93 pg
- MEAN CORPUSCULAR HEMOGLOBIN CONCENTRATION [1]: 39.9 G/DL
- MEAN CORPUSCULAR VOLUME [1]: 62.43 fL
- MONOCYTE [1]: 0.33%
- NEUTROPHIL [1]: 8.33%
- NUCLEATED RED BLOOD CELLS [1]: 0.33 /100WBC
- PLATELET COUNT [1]: 1316.67 x10E3/uL
- ALANINE AMINOTRANSFERASE [1]: 43.67 u/L
- ALBUMIN [1]: 4 G/DL
- ALKALINE PHOSPHATASE [1]: 394 u/L
- ASPARTATE AMINOTRANSFERASE [1]: 89.67 u/L
- BLOOD UREA NITROGEN [1]: 15.33 mg/dL
- CARBON DIOXIDE [1]: 30 mmol/L
- CHLORIDE [1]: 100.33 MEQ/L
- CHOLESTEROL [1]: 66.67 mg/dL
- CREATINE PHOSPHOKINASE [1]: 486 u/L
- CREATININE [1]: 0.18 mg/dL
- GLUCOSE [1]: 145.33 mg/dL
- LACTATE DEHYDROGENASE [1]: 605.67 u/L
- LIPASE [1]: 11 u/L
- PHOSPHORUS [1]: 12.43 mg/dL
- POTASSIUM [1]: 6.68 MEQ/L
- SODIUM [1]: 141.6 MEQ/L
- TOTAL BILIRUBIN [1]: 0.2 mg/dL
- TOTAL PROTEIN [1]: 5.97 G/DL
- URIC ACID [1]: 1.87 mg/dL
- ABSOLUTE BASOPHIL [2]: 0 CELLS/uL
- ABSOLUTE EOSINOPHIL [2]: 85.33 CELLS/uL
- ABSOLUTE LYMPHOCYTE [2]: 16571 CELLS/uL
- ABSOLUTE MONOCYTE [2]: 212.67 CELLS/uL
- ABSOLUTE SEGMENTED NEUTROPHIL [2]: 697.67 CELLS/uL
- BASOPHIL [2]: 0%
- EOSINOPHIL [2]: 0.67%
- ERYTHROCYTE COUNT [2]: 5.93 x10E6/uL
- HEMATOCRIT [2]: 38.63%
- HEMOGLOBIN [2]: 15.33 G/DL
- LEUKOCYTE COUNT [2]: 17.57 x10E3/uL
- LYMPHOCYTE [2]: 94%
- MEAN CORPUSCULAR HEMOGLOBIN [2]: 25.83 pg
- MEAN CORPUSCULAR HEMOGLOBIN CONCENTRATION [2]: 39.7 G/DL
- MEAN CORPUSCULAR VOLUME [2]: 65.13 fL
- MONOCYTE [2]: 1%
- NEUTROPHIL [2]: 4.33%
- NUCLEATED RED BLOOD CELLS [2]: 0 /100WBC
- PLATELET COUNT [2]: 1403.33 x10E3/uL
- ALANINE AMINOTRANSFERASE [2]: 60 u/L
- ALBUMIN [2]: 4.1 G/DL
- ALKALINE PHOSPHATASE [2]: 422 u/L
- ASPARTATE AMINOTRANSFERASE [2]: 80.33 u/L
- BLOOD UREA NITROGEN [2]: 14 mg/dL
- CARBON DIOXIDE [2]: 34 mmol/L
- CHLORIDE [2]: 102 MEQ/L
- CHOLESTEROL [2]: 83 mg/dL
- CREATINE PHOSPHOKINASE [2]: 464 u/L
- CREATININE [2]: 0.15 mg/dL
- GLUCOSE [2]: 151.67 mg/dL
- LACTATE DEHYDROGENASE [2]: 162.67 u/L
- LIPASE [2]: 10.33 u/L
- PHOSPHORUS [2]: 11.3 mg/dL
- POTASSIUM [2]: 5.61 MEQ/L
- SODIUM [2]: 145.53 MEQ/L
- TOTAL BILIRUBIN [2]: 0.13 mg/dL
- TOTAL PROTEIN [2]: 5.93 G/DL
- URIC ACID [2]: 1.57 mg/dL
- ABSOLUTE BASOPHIL [3]: 0 CELLS/uL
- ABSOLUTE EOSINOPHIL [3]: 42.33 CELLS/uL
- ABSOLUTE LYMPHOCYTE [3]: 10052.67 CELLS/uL
- ABSOLUTE MONOCYTE [3]: 70 CELLS/uL
- ABSOLUTE SEGMENTED NEUTROPHIL [3]: 435 CELLS/uL
- BASOPHIL [3]: 0%
- EOSINOPHIL [3]: 0.33%
- ERYTHROCYTE COUNT [3]: 5.82 x10E6/uL
- HEMATOCRIT [3]: 36.27%
- HEMOGLOBIN [3]: 14.2 G/DL
- LEUKOCYTE COUNT [3]: 10.6 x10E3/uL
- LYMPHOCYTE [3]: 94.67%
- MEAN CORPUSCULAR HEMOGLOBIN [3]: 24.37 pg
- MEAN CORPUSCULAR HEMOGLOBIN CONCENTRATION [3]: 39.17 G/DL
- MEAN CORPUSCULAR VOLUME [3]: 62.27 fL
- MONOCYTE [3]: 0.67%
- NEUTROPHIL [3]: 4.33%
- NUCLEATED RED BLOOD CELLS [3]: 0.33 /100WBC
- PLATELET COUNT [3]: 1249.67 x10E3/uL
- ALANINE AMINOTRANSFERASE [3]: 49.67 u/L
- ALBUMIN [3]: 4 G/DL
- ALKALINE PHOSPHATASE [3]: 363.67 u/L
- ASPARTATE AMINOTRANSFERASE [3]: 96.67 u/L
- BLOOD UREA NITROGEN [3]: 14.67 mg/dL
- CARBON DIOXIDE [3]: 30.33 mmol/L
- CHLORIDE [3]: 100.67 MEQ/L
- CHOLESTEROL [3]: 72.67 mg/dL
- CREATINE PHOSPHOKINASE [3]: 1225 u/L
- CREATININE [3]: 0.16 mg/dL
- GLUCOSE [3]: 188 mg/dL
- LACTATE DEHYDROGENASE [3]: 246.67 u/L
- LIPASE [3]: 10.33 u/L
- PHOSPHORUS [3]: 12.93 mg/dL
- POTASSIUM [3]: 5.4 MEQ/L
- SODIUM [3]: 143.4 MEQ/L
- TOTAL BILIRUBIN [3]: 0.17 mg/dL
- TOTAL PROTEIN [3]: 6.23 G/DL
- URIC ACID [3]: 1.83 mg/dL
